Source: article PMC7894426, “Influence of verapamil on the pharmacokinetics of rotundic acid in rats and its potential mechanism” (Pharmaceutical Biology, 2021)
Where two headings read alike, the source gives them in different places.

What was measured:
[1] = Bidirectional transport across Caco-2 cell monolayer; type: in vitro ADME, human; settings: human, pH 7.4, Caco-2, 25 µM RA, without verapamil
Description: (§1) The qualified monolayers were used for transport studies. […] Each experiment was carried out in triplicate.

[2] = system: P-gp; experiment: as above; type: in vitro ADME, human; settings: human, pH 7.4, with verapamil 50 µM, Caco-2, 25 µM RA, + 50 µM verapamil
Description: as §1

[3] = target: T1, CYP2C8 (Homo sapiens, UniProt P10632); experiment: Metabolic depletion of RA by rhCYP2C8; type: in vitro ADME; settings: rhCYP2C8 25 pM, RA 2 µM, 30 min
T1 construct: purchased Research Institute for Liver Disease (Shanghai) Co., Ltd
T1 sequence (P10632 1-490): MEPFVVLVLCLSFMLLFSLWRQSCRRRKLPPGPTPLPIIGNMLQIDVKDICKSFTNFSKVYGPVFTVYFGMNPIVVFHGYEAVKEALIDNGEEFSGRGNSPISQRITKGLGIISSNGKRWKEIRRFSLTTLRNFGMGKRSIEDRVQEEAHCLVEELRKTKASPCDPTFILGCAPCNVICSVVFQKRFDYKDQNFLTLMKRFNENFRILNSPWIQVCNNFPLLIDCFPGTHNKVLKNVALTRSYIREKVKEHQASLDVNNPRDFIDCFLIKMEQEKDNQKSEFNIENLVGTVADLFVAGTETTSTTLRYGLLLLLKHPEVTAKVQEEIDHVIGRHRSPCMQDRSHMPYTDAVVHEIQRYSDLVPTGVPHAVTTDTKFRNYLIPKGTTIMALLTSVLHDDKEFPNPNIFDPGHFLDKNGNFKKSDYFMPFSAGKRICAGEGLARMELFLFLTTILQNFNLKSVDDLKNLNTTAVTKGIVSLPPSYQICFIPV
Description: The metabolic stability of RA was evaluated against five rhCYPs (1A2, 2C8, 2C9, 2D6 and 3A4). Incubation was taken place in 0.1 M sodium phosphate buffer (pH 7.4) containing 5 mM MgCl2, 1 mM NADPH, and 25 pM rhCYP enzyme protein at 37 °C in a total volume of 1 mL. After pre-incubated for 5 min, the reactions were started by the addition of RA methanol solution (final concentration of 2 µM). Aliquots of 50 µL incubation solution were collected from the reaction at 0, 5, 10, 20 and 30 min, and quenched with 50 µL ice-cold methanol (containing 0.5% formic acid) and 100 µL ice-cold acetonitrile containing IS (10 ng/mL). The heat-inactivated rhCYP3A4 were used as negative controls. All reactions were conducted in triplicate, followed by LC-MS/MS analysis. Results presented in percentage of drug remaining in incubation starting at 100% at time zero.

[4] = Metabolic stability in rat liver microsomes with or without verapamil; type: in vitro ADME; settings: rat, liver microsomes, RLMs 1 mg/mL, RA 2 µM; for k el at 2 µM: read-out: ke (converted)
Description: (§2) Low metabolic stability is a major barrier to further improve the oral bioavailability of the herb drugs. To gauge the medicinal chemistry value of RA, we evaluated their metabolic stability in RLMs with or without verapamil. The in vitro microsomal stability assay was conducted in triplicate in rat liver microsomal systems, which were supplemented with NADPH as a cofactor. The assay conditions and reaction mixtures were similar to the previous report with minor modifications (Li et al. [2016]; Sun et al. [2019]). Briefly, the incubation system (final volume of 1 mL) consisted of 1 mg/mL rat liver microsomal protein, 1 mM NADPH, and 5 mM MgCl2 in 0.1 M sodium phosphate buffer (pH 7.4). The incubation system was pre-incubated at 37 °C for 15 min and initiated by adding RA methanol solution (final concentration of 2 µM). The effects of verapamil on the metabolic stability of RA were investigated by adding 50 µM of verapamil (Ma et al. [2000]; Lee and Kim [2013]; Dinger et al. [2014]) to RLMs and pre-incubating for 15 min at 37 °C. The final concentration of methanol (used for dissolving the substrate and inhibitor) was lower than 1% (v/v). Negative control was performed in parallel in a heat-inactivated liver microsomes incubation system to measure any chemical instability or non-enzymatic degradation. Aliquots of 50 µL incubation solution were collected from the reaction at 0, 5, 15, 30 and 60 min, and quenched with 50 µL ice-cold methanol (containing 0.5% formic acid) and 100 µL ice-cold acetonitrile containing IS (10 ng/mL). The samples were then vortexed for 1 min and centrifuged at 12,000 rpm for 10 min at 4 °C. The supernatants were collected and analyzed by LC-MS/MS.
(§3) Substrate depletion and in vitro half-life (t1/2) are common descriptors for metabolic stability. The t1/2 is calculated by the substrate disappearance. The obtained concentration value for time t is divided by the value for time zero and then multiplied by a factor of 100, which represents the ‘% Remaining’ to provide the relative remaining substrate level for the time t. The natural logarithm (ln) of the ‘% Remaining’ of RA was plotted against the incubation time (in min) using linear regression.
(§4) Where, ke, the elimination rate constant, is the slope of a linear regression curve in a semilog plot. Data were collected from triplicate experiments.

[5] = system: rat liver microsomes; experiment: as above; type: in vitro ADME; settings: heat-inactivated microsomes, RA 2 µM
Description: as §2, §3, §4

[6] = system: MDCKII-MDR1 cells; experiment: MTS cell-proliferation assay; type: cell-based, canine; settings: 25 µM RA
[7] = target: P-gp (Homo sapiens, UniProt P08183); experiment: Bidirectional transport across MDCKII-MDR1 cell monolayers (P-gp substrate assessment); settings: dog, MDCK-MDR1, pH 7.4
Chain of P-gp (Homo sapiens, UniProt P08183) (P08183 whole entry): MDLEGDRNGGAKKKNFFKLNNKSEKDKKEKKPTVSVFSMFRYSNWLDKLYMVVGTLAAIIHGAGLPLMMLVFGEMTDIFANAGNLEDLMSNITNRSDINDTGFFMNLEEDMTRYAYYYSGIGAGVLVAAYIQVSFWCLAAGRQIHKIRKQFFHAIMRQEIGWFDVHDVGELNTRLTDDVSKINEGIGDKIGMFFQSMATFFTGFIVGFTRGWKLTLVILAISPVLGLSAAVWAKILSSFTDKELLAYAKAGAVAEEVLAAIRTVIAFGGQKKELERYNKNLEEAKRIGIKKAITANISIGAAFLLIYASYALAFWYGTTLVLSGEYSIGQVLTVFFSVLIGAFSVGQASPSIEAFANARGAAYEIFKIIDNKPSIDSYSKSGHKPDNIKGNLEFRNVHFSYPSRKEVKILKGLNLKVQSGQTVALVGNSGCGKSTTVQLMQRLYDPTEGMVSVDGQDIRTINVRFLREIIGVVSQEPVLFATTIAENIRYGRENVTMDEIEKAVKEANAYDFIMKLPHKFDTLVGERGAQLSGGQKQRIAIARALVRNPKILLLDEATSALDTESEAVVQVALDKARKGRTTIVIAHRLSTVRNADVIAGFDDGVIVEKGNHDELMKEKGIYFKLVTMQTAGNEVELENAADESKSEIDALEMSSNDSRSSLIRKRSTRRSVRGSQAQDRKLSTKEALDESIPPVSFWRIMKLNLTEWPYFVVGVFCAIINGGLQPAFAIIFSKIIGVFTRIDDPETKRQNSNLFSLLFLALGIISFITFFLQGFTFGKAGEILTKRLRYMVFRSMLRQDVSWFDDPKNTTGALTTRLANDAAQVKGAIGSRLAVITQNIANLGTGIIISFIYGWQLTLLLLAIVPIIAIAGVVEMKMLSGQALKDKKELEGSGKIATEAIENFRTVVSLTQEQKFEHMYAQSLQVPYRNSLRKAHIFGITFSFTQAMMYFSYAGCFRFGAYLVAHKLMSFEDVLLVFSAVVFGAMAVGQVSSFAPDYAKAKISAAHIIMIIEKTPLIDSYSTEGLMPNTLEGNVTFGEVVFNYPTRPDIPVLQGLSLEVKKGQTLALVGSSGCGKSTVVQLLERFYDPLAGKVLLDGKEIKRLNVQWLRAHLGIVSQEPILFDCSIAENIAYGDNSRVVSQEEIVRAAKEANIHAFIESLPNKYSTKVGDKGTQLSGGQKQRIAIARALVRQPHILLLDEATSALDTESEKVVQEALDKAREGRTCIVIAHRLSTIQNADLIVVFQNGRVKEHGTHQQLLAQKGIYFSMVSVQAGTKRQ
Description: MDCKII-Mock and MDCKII-MDR1 cells were given as a gift by Fuji Biomedix Co., Ltd. (Japan) and cultured in DMEM supplemented with 10% FBS and 1% antibiotic (10,000 U/mL penicillin and 10 mg/mL streptomycin). Caco-2 cell line, the human epithelial cell used in this assay, was purchased from the Cell Bank of the Chinese Academy of Sciences (Shanghai, China) and maintained between 30 and 45 passages. It was cultured according to the previous report (Guo et al. [2018]; Xiang et al. [2020]). Briefly, the Caco-2 cells were cultured in DMEM supplemented with 10% FBS, 1% NEAA, and 1% antibiotic (10,000 U/mL penicillin and 10 mg/mL streptomycin). All cells were maintained in a 5% CO2 atmosphere and 90% relative humidity at 37 °C.
For transport studies, the MDCKII-Mock, MDCKII-MDR1, and Caco-2 cells were seeded at a density of 2 × 10^5 cells/mL on Costar Transwell inserts (1.12 cm^2 surface, polycarbonate, 12 mm diameter, 0.4 µm pore size). MDCKII-Mock and MDCKII-MDR1 cells were cultured for 5–7 days in medium, for the first four days, the medium was replaced freshly every two days, and then daily. The Caco-2 cells were cultured for 19–21 days in the medium. For the first 2 weeks, the medium was replaced freshly every two days, and then daily. […] The transepithelial electrical resistance (TEER) of the monolayer cells was measured by Millcell ERS-2 (Millipore, USA), and only the monolayer with TEER exceeding 150 Ω·m^2 (MDCKII-Mock and MDCKII-MDR1 cells) and 400 Ω·m^2 (Caco-2 cells) were used for the transport experiment. The membrane integrity and transport function of MDCKII-Mock, MDCKII-MDR1, and Caco-2 cell monolayers were further verified with Lucifer yellow and Rhodamine-123. The qualified monolayers were used for transport studies.
Before the transport studies, the media in both chambers of the transwell were replaced by warm (37 °C) Hank’s balanced salt solution (HBSS), and then the MDCKII-Mock, MDCKII-MDR1, and Caco-2 cell monolayers were incubated at 37 °C and 5% CO2 for 20 min. […] Our transport studies included absorptive direction transport from the apical (AP) side to the basolateral (BL) side and secretory direction transport from the BL side to the AP side. […] After administration, the transwell plate was placed in a thermostatic oscillator shaking at 60 rpm and 37 °C. At 10, 20, 40 and 60 min, respectively, 50 µL incubating sample aliquot was collected from the receiver chamber and immediately replaced by the same volume of fresh HBSS (37 °C). In addition, the membrane integrity of MDCKII-Mock, MDCKII-MDR1, and Caco-2 cell monolayers were evaluated with Lucifer yellow (30 µM) and TEER value, and the efflux activity of P-gp was validated using a typical P-gp substrate rhodamine-123 (10 µM).
The parameters Papp, RE, and NRE were calculated using the following equation: Papp=(ΔQ/Δt)×[1/(A×C0)]

[8] = 10 min, read-out: RE (efflux ratio)
[9] = 20 min, read-out: RE (efflux ratio)
[10] = 40 min, read-out: RE (efflux ratio)
[11] = 60 min, read-out: RE (efflux ratio)
[12] = pH 7.4, with verapamil 50 µM, pre-treatment of verapamil 50 µM

In the case of C[C@@H]1CC[C@]2(C(=O)O)CC[C@]3(C)C(=CC[C@@H]4[C@@]5(C)CC[C@H](O)[C@@](C)(CO)[C@@H]5CC[C@]43C)[C@@H]2[C@]1(C)O [RA, Rotundic acid], the efflux ratio at 25 µM ([1]; 10–60 min, read-out: Papp (BL→AP) relative to Papp (AP→BL)) is reported as 2, the Papp A→B at 10 min, 25 µM ([1]; 10 min) is reported as 0.468 ± 0.0625 ×10⁻⁶ cm/s and the Papp B→A at 10 min, 25 µM ([1]; 10 min) is reported as 3.25 ± 0.35 ×10⁻⁶ cm/s. It also gave an efflux ratio at 10 min, 25 µM [1, 8] of 6.93, a Papp A→B at 20 min, 25 µM ([1]; 20 min) of 0.776 ± 0.128 ×10⁻⁶ cm/s and a Papp B→A at 20 min, 25 µM ([1]; 20 min) of 5.45 ± 0.806 ×10⁻⁶ cm/s. For the same compound, the efflux ratio at 20 min, 25 µM [1, 9] was 7.02, the Papp A→B at 40 min, 25 µM ([1]; 40 min) was 2.8 ± 0.467 ×10⁻⁶ cm/s and the Papp B→A at 40 min, 25 µM ([1]; 40 min) was 7.13 ± 0.36 ×10⁻⁶ cm/s. The efflux ratio at 40 min, 25 µM [1, 10] was 2.55, the Papp A→B at 60 min, 25 µM ([1]; 60 min) was 2.84 ± 0.441 ×10⁻⁶ cm/s and the Papp B→A at 60 min, 25 µM ([1]; 60 min) was 6.56 ± 0.941 ×10⁻⁶ cm/s. For the same compound, the efflux ratio at 60 min, 25 µM [1, 11] was 2.31, the Papp A→B at 10 min, 25 µM ([2]; 10 min) was 1.07 ± 0.212 ×10⁻⁶ cm/s and the Papp B→A at 10 min, 25 µM ([2]; 10 min) was 2.73 ± 0.348 ×10⁻⁶ cm/s. It also gave an efflux ratio at 10 min, 25 µM [2, 8] of 2.55, a Papp A→B at 20 min, 25 µM ([2]; 20 min) of 2.45 ± 0.707 ×10⁻⁶ cm/s and a Papp B→A at 20 min, 25 µM ([2]; 20 min) of 5.32 ± 0.306 ×10⁻⁶ cm/s. The efflux ratio at 20 min, 25 µM [2, 9] was 2.17, the Papp A→B at 40 min, 25 µM ([2]; 40 min) was 4.69 ± 0.945 ×10⁻⁶ cm/s and the Papp B→A at 40 min, 25 µM ([2]; 40 min) was 5.68 ± 0.683 ×10⁻⁶ cm/s. The efflux ratio at 40 min, 25 µM [2, 10] was 1.21, the Papp A→B at 60 min, 25 µM ([2]; 60 min) was 4.71 ± 0.524 ×10⁻⁶ cm/s and the Papp B→A at 60 min, 25 µM ([2]; 60 min) was 5.29 ± 0.438 ×10⁻⁶ cm/s. It also gave an efflux ratio at 60 min, 25 µM [2, 11] of 1.12, an RA converted [3] of under 30% and a half-life at 2 µM [4, 12] of 58.2 ± 5.17 min. It also gave a microsomal CLint at 2 µM [4, 12] of 12 ± 1.06 µL/min/mg, a k el at 2 µM [4, 12] of 0.0002 s⁻¹ and a half-life at 2 µM ([4]; pH 7.4, control) of 14.3 ± 0.941 min. For the same compound, the microsomal CLint at 2 µM ([4]; pH 7.4, control) was 48.5 ± 3.18 µL/min/mg, the k el at 2 µM ([4]; pH 7.4, control) was 0.000808 s⁻¹ and the “degradation in negative control” value [5] was “No obvious degradation”. For the same compound, the “effect on cell proliferation (MTS)” value [6] was “did not influence the cell proliferation”, the Papp A→B at 20 min [7] was 4.22 ± 0.611 ×10⁻⁶ cm/s and the Papp B→A at 20 min [7] was 12.1 ± 1.55 ×10⁻⁶ cm/s. For the same compound, the efflux ratio at 20 min [7] was 2.87.
